Laboratory results from publication PMC9575003 (Pharmacology, biochemistry, and behavior, 2016).

Experiments:
[1] = target: hNET (norepinephrine transporter) (Homo sapiens, UniProt P23975); assay: in vitro binding affinity
[2] = target: dopamine D4 receptor (Homo sapiens, UniProt P21917); assay: Ki, apparently from the radioligand screening panel
[3] = target: hSERT (serotonin transporter) (Homo sapiens, UniProt P31645); assay: in vitro binding affinity
[4] = target: hDAT (dopamine transporter) (Homo sapiens, UniProt Q01959); assay: in vitro binding affinity
Chain of hDAT (dopamine transporter) (Q01959 whole entry): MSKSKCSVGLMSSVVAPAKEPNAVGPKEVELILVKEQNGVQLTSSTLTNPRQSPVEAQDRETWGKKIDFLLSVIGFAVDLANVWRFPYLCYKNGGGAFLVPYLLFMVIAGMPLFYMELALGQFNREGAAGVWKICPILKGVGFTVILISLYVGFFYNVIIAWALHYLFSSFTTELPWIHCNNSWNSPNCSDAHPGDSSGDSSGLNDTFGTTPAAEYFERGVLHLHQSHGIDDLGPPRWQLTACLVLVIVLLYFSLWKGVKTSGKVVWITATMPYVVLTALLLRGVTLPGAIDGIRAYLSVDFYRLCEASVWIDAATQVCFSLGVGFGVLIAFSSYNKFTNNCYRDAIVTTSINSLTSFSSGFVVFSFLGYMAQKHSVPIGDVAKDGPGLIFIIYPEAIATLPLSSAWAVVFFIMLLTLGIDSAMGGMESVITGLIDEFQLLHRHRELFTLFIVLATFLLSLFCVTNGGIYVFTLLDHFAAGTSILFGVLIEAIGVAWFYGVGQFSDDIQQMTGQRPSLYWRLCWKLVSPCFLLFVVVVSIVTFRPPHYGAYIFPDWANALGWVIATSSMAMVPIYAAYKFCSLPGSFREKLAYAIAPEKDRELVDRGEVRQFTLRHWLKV

Chain of hNET (norepinephrine transporter) (P23975 whole entry): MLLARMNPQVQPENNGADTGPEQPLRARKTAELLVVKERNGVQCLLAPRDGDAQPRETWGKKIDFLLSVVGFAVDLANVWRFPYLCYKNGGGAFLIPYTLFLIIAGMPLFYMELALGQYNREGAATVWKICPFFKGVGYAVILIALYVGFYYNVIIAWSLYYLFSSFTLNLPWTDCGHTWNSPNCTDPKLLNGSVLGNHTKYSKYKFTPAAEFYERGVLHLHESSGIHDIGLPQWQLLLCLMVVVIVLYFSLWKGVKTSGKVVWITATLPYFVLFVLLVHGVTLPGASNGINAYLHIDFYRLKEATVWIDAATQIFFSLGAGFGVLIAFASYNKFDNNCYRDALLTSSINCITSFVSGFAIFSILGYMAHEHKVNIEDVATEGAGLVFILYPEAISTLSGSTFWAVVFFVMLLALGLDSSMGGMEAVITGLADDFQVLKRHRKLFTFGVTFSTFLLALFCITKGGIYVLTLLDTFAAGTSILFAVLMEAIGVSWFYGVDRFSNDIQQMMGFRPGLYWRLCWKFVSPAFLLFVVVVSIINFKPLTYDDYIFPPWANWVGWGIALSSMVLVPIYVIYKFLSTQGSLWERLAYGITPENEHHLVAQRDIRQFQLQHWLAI
Chain of hSERT (serotonin transporter) (P31645 whole entry): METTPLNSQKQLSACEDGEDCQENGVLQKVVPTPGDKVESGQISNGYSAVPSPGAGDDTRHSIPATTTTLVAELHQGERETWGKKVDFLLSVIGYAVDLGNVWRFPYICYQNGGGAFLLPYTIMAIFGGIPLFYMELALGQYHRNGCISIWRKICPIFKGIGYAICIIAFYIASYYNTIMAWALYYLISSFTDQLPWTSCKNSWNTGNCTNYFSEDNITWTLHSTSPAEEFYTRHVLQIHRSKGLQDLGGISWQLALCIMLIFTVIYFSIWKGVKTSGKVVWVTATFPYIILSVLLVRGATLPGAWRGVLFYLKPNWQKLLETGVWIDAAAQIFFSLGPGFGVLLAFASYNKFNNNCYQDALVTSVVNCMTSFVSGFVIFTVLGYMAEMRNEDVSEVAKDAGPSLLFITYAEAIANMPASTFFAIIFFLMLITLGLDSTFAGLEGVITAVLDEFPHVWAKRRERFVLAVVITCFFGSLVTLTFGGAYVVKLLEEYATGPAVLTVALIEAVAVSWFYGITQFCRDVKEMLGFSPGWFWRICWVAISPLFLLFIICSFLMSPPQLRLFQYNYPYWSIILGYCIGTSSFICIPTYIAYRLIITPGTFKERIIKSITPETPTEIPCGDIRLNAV
Chain of dopamine D4 receptor (P21917 whole entry): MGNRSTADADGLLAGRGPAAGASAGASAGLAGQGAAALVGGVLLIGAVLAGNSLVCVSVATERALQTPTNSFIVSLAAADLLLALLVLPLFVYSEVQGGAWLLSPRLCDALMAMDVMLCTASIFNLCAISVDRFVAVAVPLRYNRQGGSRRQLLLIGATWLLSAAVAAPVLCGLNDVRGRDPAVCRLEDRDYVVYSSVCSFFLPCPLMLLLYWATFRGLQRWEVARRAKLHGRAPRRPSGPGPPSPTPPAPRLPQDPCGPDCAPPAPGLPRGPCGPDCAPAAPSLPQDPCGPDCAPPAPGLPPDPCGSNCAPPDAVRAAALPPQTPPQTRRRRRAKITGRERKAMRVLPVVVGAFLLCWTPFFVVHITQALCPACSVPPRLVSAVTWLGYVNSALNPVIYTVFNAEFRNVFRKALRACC

For `C[C@@H](CN1CCC(Cc2ccccc2)CC1)C(O)c1ccc(O)cc1` (stereo partly shown) [MI-4, Ro-25-6981], the Ki [1] was 365 nM, the Ki [2] was 120 nM and the Ki [3] was 670 nM. For the same compound, the Ki [4] was 3.46 µM.
